Where two headings read alike, the source gives them in different places.
Legend:
[1] = LC-MS/MS of [Ile13C,15N]OT in plasma after oral administration to pups; format: in vivo, mice
Method: Plasma samples were collected from the heart of anesthetized wild-type PND3 pups at 10 min after oral administration of [Ile ^13C, ^15N]OT (100 µM × 10 μL). The samples were fractionated with 1 N salt, and subjected to LC-MS/MS after sample preparation by the deproteination procedure. Figure 7 illustrates two representative traces of multiple reaction monitoring (MRM) chromatograms ([M + H^+] (m/z 1014.6) → b6 ion (m/z 730.6) for the administered [Ile ^13C, ^15N]OT; [M + H^+] (m/z 1021.2) → b6 ion (m/z 723.2) for the internal STD [Pro&Leu^13C, ^15N]OT)[47]. The left MRM chromatogram indicates the presence of full-length stably labelled [Ile ^13C, ^15N]OT in the blood owing to intestinal absorption after oral administration in suckling (PND3) pups (n = 4). The right MRM chromatogram of Fig. 7 corresponds to the internal STD [Pro&Leu^13C, ^15N]OT spiked into the plasma.
Standard (STD) samples of [Ile^13C, ^15N]OT (100 ng/mL) and [Pro&Leu^13C, ^15N]OT (100 ng/mL) were prepared by dilution of stock solutions with 0.1% TFA as necessary. […]
An AB Sciex 4000 QTRAP (CA, USA) was used. The prepared 25 μL sample was injected and separated by a ZORBAX 300SB-C8 column (2.1 × 150 mm, 5 μm; CA, USA) and then detected using the multiple reaction monitoring (MRM) mode of the MS/MS system. […]

[2] = Plasma AVP after oral delivery of AVP in pups (EIA); format: in vivo, mice; settings: for AVP recovery: rough estimate
Method: To study the specificity of RAGE-dependent transport of OT, we investigated the intestinal absorption of another nonapeptide, arginine vasopressin (AVP[46]) by oral delivery and in the isolated intestines. Transport during the suckling period of development (PND3 and PND5) was confirmed by comparing plasma AVP levels at 10 min after oral delivery of 10 μL of synthetic AVP solution (100 μM; 1 μg/pup) or the same volume of PBS to pups after fasting for 30 min. Plasma AVP concentrations were markedly higher at both PND3 and PND5 in pups administered AVP than in those administered oral saline (Fig. 6a). Two-way ANOVA was used to analyse the interaction between Treatment (PBS/AVP) × Age, F 1,18 = 3.14, P = 0.0933; the Treatment (PBS/AVP) effect, F 1,18 = 5.21, P < 0.05; and the Age effect, F 1,18 = 91.26, P < 0.0001. Bonferroni’s post hoc tests were used to determine differences in AVP levels between PND3 and PND5, *P < 0.05. It is worth noting that the pup size denominator problem was also present in the above experiment. However, if we roughly estimate AVP recovery, it is approximately 4% at PND3 (22 ng was recovered from the effective dose of 555 ng (1 μg/1.8 g pup)) and also 4% at PND5 (16 ng was recovered from the effective dose of 400 ng (1 μg/2.5 g pup)).
Approximately 30 μL of blood was collected from the facial vein of neonates after quick cold anesthesia on ice (Fig. 1a; ref. [67], [68]). The similar blood volume was obtained from the heart after opening of the chest of pups (Figs 1b–d, 3a,b, 6a and 7), from the carotid artery in the pup neck (Fig. 2a) and the tail vein of adults each time (Fig. 6) under ketamine anaesthesia ([…] intraperitoneally).
OT or AVP immunoreactivity levels were quantified by using OT and AVP enzyme immunoassay (EIA) kits (Enzo Life Sciences, NY, USA), respectively. We performed assays in tissue preparations without pre-treatment[66], [70] to compare different tissue samples, though the fractioned sample was recommended, [72]. Blood samples collected as mentioned above were stored at −80 C. The blood samples were thawed and five μL of them were diluted 1:20 in assay buffer on ice and assayed.

[3] = adult humans, cited from earlier work
Method: An estimation of bioavailability was performed in adult mice. Fifty ng/mL of OT was detected after oral delivery of 10 μg of OT. Young adults weigh approximately 30 g and have 2.3 mL blood, so approximately 1% of oral OT can be absorbed. We have previously identified OT in the mammary tissues of mouse dams and in the milk curd inside the oesophagi of pups[13]. To determine the OT concentrations in milk, we needed to collect milk from the mothers. One common method is to collect milk after stimulating secretion with external OT. Because such milk contains external OT, we were unable to calculat ...

`CC[C@H](C)[C@@H]1NC(=O)[C@H](Cc2ccc(O)cc2)NC(=O)[C@@H](N)CSSC[C@@H](C(=O)N2CCC[C@H]2C(=O)N[C@@H](CC(C)C)C(=O)NCC(N)=O)NC(=O)[C@H](CC(N)=O)NC(=O)[C@H](CCC(N)=O)NC1=O` showed an OT detected in plasma after oral delivery of 50 ng/mL.
For `CC[C@H](C)[C@@H]1NC(=O)[C@H](Cc2ccc(O)cc2)NC(=O)[C@@H](N)CSSC[C@@H](C(=O)N2CCC[C@H]2C(=O)N[C@@H](CC(C)C)C(=O)NCC(N)=O)NC(=O)[C@H](CC(N)=O)NC(=O)[C@H](CCC(N)=O)NC1=O` [[Ile ^13C, ^15N]OT, isoleucine [Ile ^13C, ^15N] oxytocin], the level at 10 min ([1]; mouse, in vivo, 1000 ng, wild-type PND3 pups 10 min after oral 100 µM × 10 μL, LC-MS/MS, corrected for dilution x10, n = 4, read-out: Estimated mean concentration in the blood) was 346 ± 96 ng/mL and the “Concentration calculated from ratio of peak areas (10-fold diluted sample)” value ([1]; wild-type PND3 pup plasma 10 min after oral 100 µM × 10 μL, LC-MS/MS MRM, sample of Fig. 7, before correction for dilution) was 27.9 ng/mL.
In the case of arginine vasopressin [AVP], the AVP recovered ([2]; wild-type pups PND3, 10 min after oral AVP 1 μg/pup, effective dose 555 ng) is reported as 22 ng, the AVP recovery ([2]; wild-type pups PND3, 10 min after oral AVP 1 μg/pup, effective dose 555 ng (1 μg/1.8 g pup)) is reported as “approximately 4%” and the AVP recovered ([2]; wild-type pups PND5, 10 min after oral AVP 1 μg/pup, effective dose 400 ng) is reported as 16 ng. The AVP recovery ([2]; wild-type pups PND5, 10 min after oral AVP 1 μg/pup, effective dose 400 ng (1 μg/2.5 g pup)) was “approximately 4%”.
For 1-deamino-8-arginine vasopressin, the Bioavailability ([3]; intranasal) is given as 3.4%, the Bioavailability ([3]; intrarectal) is given as 0% and the Bioavailability ([3]; oral) is given as 0.1%. The Bioavailability ([3]; sublingual) was 0%.

From paper PMC5554167, “Intestinal transepithelial permeability of oxytocin into the blood is dependent on the receptor for advanced glycation end products in mice” (Scientific Reports, 2017)
